The record followed here is ChEMBL document CHEMBL3612050, “Dual inhibition of Staphylococcus aureus DNA gyrase and topoisomerase IV activity by phenylalanine-derived (Z)-5-arylmethylidene rhodanines” (Bioorg Med Chem, 2015).

≈ marks a conversion by molar mass, not a printed value.

In assay [1] the test system is Staphylococcus aureus. The assay can be described thus: Inhibition of Staphylococcus aureus Topoisomerase 4 assessed as inhibition of supercoiled pBR322 DNA relaxation after 30 mins by agarose gel electrophoresis.
Assay [2] concerns the target DNA gyrase (Staphylococcus aureus) (UniProt P0A0K8+P20831).
Description: Inhibition of Staphylococcus aureus DNA gyrase assessed as inhibition of negative supercoiling of pBR322 DNA after 30 mins by agarose gel electrophoresis

Chain of DNA gyrase (Staphylococcus aureus) (P0A0K8 2-644 limits assumed): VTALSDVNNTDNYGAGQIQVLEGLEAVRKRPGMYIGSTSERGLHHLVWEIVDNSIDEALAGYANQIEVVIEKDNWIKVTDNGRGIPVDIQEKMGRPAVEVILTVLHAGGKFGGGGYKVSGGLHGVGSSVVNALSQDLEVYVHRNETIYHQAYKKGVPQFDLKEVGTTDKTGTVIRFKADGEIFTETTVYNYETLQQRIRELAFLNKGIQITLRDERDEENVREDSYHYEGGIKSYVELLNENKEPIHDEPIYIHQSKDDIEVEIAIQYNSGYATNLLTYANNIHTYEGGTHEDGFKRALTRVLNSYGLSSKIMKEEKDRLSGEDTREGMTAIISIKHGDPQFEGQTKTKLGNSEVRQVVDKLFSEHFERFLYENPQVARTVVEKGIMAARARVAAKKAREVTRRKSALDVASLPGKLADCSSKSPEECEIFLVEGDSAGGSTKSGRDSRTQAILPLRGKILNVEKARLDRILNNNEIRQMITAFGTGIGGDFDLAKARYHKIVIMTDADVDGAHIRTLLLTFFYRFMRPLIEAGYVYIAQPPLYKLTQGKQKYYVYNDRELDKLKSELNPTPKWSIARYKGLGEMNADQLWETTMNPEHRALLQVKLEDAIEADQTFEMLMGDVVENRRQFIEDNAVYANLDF
Chain of DNA gyrase (Staphylococcus aureus) (P20831 whole entry partner): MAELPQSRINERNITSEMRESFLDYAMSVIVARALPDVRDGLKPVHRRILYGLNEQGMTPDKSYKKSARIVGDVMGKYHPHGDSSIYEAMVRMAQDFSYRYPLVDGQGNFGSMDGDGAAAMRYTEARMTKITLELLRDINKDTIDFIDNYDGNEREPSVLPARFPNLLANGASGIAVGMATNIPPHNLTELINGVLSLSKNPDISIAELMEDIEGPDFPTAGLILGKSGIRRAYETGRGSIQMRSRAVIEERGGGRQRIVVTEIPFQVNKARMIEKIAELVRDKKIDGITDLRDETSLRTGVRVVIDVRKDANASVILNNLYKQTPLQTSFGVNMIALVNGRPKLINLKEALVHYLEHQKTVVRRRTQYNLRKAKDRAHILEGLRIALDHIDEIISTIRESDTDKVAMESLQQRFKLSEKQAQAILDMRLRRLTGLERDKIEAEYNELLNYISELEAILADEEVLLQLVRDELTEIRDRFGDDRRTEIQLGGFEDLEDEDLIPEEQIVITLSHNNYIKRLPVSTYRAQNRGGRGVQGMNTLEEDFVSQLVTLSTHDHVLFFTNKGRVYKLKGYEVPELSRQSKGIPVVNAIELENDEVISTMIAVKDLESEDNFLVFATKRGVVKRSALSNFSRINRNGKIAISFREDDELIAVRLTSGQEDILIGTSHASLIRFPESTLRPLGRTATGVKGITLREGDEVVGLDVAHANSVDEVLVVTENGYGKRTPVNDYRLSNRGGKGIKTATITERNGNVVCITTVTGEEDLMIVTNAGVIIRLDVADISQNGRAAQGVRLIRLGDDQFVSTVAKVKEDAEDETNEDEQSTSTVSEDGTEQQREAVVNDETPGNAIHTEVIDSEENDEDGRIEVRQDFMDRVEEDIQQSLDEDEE

Turning to `O=C(O)[C@H](Cc1ccccc1)N1C(=O)/C(=C/c2cccc(OC/C=C\c3ccccc3)c2)SC1=S`, the MIC in assay [1] is 5 µM (≈ 2.51 µg/mL); in assay [2] it was 10 µM (≈ 5.02 µg/mL).
As for `O=C(O)[C@H](Cc1ccccc1)N1C(=O)/C(=C/c2cccc(Cc3ccccc3)c2)SC1=S`, the results for the MIC in assay [1] and in assay [2] were 17.5 µM (≈ 8.04 µg/mL) and 25 µM (≈ 11.5 µg/mL), respectively.
For `O=C(O)[C@H](Cc1ccccc1)N1C(=O)/C(=C/c2cccc(Cc3ccc(Cl)c(Cl)c3)c2)SC1=S` the same measures were 0.75 µM (≈ 0.396 µg/mL) and 7.5 µM (≈ 3.96 µg/mL).
The matching figures for `O=C(O)[C@H](Cc1ccccc1)N1C(=O)/C(=C/c2cccc(-c3ccccc3)c2)SC1=S`: 0.5 µM (≈ 0.223 µg/mL) and 17.5 µM (≈ 7.8 µg/mL).
In the case of `O=C(O)[C@H](Cc1ccccc1)N1C(=O)/C(=C/c2cccc(-c3ccc(Cl)c(Cl)c3)c2)SC1=S`, the MIC in assay [1] came out at 10 µM (≈ 5.14 µg/mL); in assay [2], 5 µM (≈ 2.57 µg/mL).
Take `O=C(O)[C@H](Cc1ccccc1)N1C(=O)/C(=C/c2cccc(Oc3ccc(Cl)c(Cl)c3)c2)SC1=S`: the MIC in assay [1] is 2.5 µM (≈ 1.33 µg/mL); in assay [2] it was 5 µM (≈ 2.65 µg/mL).
With `O=C(O)[C@H](Cc1ccccc1)N1C(=O)/C(=C/c2cccc(Oc3ccccc3)c2)SC1=S`, the figures for the MIC in assay [1] and in assay [2] were 10 µM (≈ 4.62 µg/mL) and 50 µM (≈ 23.1 µg/mL), respectively.
Consider `O=C(O)[C@@H](Cc1ccccc1)N1C(=O)/C(=C/c2cccc(Oc3ccc(F)cc3)c2)SC1=S`, for which the MIC in assay [1] stood at 5 µM (≈ 2.4 µg/mL); in assay [2], 17.5 µM (≈ 8.39 µg/mL).
In the case of `O=C(c1ccccc1)c1cccc(/C=C2\SC(=S)N([C@@H](Cc3ccccc3)C(=O)O)C2=O)c1`, the MIC in assay [1] and in assay [2] was 50 µM (≈ 23.7 µg/mL) in each case.
On to `O=C(O)[C@H](Cc1ccccc1)N1C(=O)/C(=C/c2cccc(Oc3cccc(Cl)c3)c2)SC1=S`, for which the MIC was found to be 7.5 µM (≈ 3.72 µg/mL) in assay [1] and 10 µM (≈ 4.96 µg/mL) in assay [2].
Regarding `CO[C@@H]1[C@@H](OC(N)=O)[C@@H](O)[C@H](Oc2ccc3c(O)c(NC(=O)c4ccc(O)c(CC=C(C)C)c4)c(=O)oc3c2C)OC1(C)C`, in assay [1], the MIC amounted to 2.5 µM (≈ 1.53 µg/mL).
Take `O=C(O)[C@H](Cc1ccccc1)N1C(=O)/C(=C/c2cccc(OCc3ccccc3)c2)SC1=S`: the MIC in assay [1] was found to be 17.5 µM (≈ 8.32 µg/mL); in assay [2] it was 25 µM (≈ 11.9 µg/mL).
